Results published in patent US9856256B2, “Pyridino[1,2-A]pyrimidone analogue used as P13K inhibitor” (CHIA TAI TIANQING PHARMACEUTICAL GROUP CO., LTD., priority 2014, dated 2018).

Key:
[1] = test system: MCF-7 cells; assay: In vitro cell activity assay (MCF-7, insulin stimulation, ELISA-One); assay type: cell-based; settings: Homo sapiens, MCF7, compound 2 hours in serum-free media, then 10 μg/ml insulin 30 min
Description: Experimental Steps and Method Comprise:
1. MCF-7 cells were seeded at 2,5000 cells per well in a 96 well tissue culture plate in a complete media containing 10%0/FBS.
3. The cells were treated with 10 μg/ml insulin in serum-free media for 30 min.
4. During waiting period, lysis solution was prepared as below:
a) Enhancer Solution needs to be taken out from the refrigerator to be thawed.
b) Concentrated lysis solution was prepared by diluting Enhancer Solution 10-fold in 5× Lysis Buffer.
c) Lysis solution was prepared by diluting concentrated lysis solution 5-fold with ddH2O.
5. Any media were removed from wells and the wells were rinsed with PBS once quickly.
6. 50 μL of freshly prepared lysis solution were added into each well, with shaking at room temperature for 10 min.
7. After confirming that all cells get detached from wells, the lysis solution together with the cell debris was transferred to 1.5 ml tubes.
8. The tubes were vortexed several times to thoroughly mix the lysis solution and cells, and then, and then the mixture was centrifuged at 12,000 g for 10 min at 4° C.;
9. The desired number of ELISA-One microplate strips was determined. Unused strips were removed from frame and returned to storage pouch and seal. Wells for use in the assay were rinsed with 200 μL ddH2O to remove preservatives prior to use.
10. 50 μL of antibody mixture solution was added into each well. (Antibody mixture solution was prepared by mixing capture antibody reagent and detection antibody reagent equally, avoid vortexing)
11. 25 μL of lysate was added into each well of the ELISA-One microplate. The microplate was covered with adhesive seal and incubated for 1 hour at room temperature on a microplate shaker.
12. Each well was washed with 150 μL 1× wash buffer 3 times. After final wash, any remaining wash buffer was removed from wells. If necessary, leave microplate in 1× Wash Buffer for up to 30 min, until substrate mixture solution has been prepared.
13. The substrate mixture solution should be prepared when used, 100 μL of substrate mixture solution was added into each well, and then the microplate was sealed with tin foil and incubated at room temperature for 10 minutes on a microplate shaker.
14. 10 μL of stop solution was added into each well, and then mixed slightly (5-10 seconds) on a microplate shaker.
15. Corresponding ELISA-One filter set was installed to read the fluorescence signal intensity.

[2] = molecular target: T1, PI3K (p110α) (Homo sapiens, UniProt P42336); assay: In vitro enzyme activity assay, PI3K (p110α) kinase, Method I (HTRF); assay type: biochemical; parameters: recombinant full-length human PI3K p110α subunit; His-tag (N); host or cells: insect cells; settings: 10 μM PI(4,5)P2 and 10 μM ATP), read-out: PI3K (p110α) enzyme activity_IC50
Description: (§1) PI3K (p110α) kinase activities of the compounds in all the examples of the present invention were tested via the following two methods, respectively.
Reaction buffer: HEPES 50 mM (pH7.0), NaN3 0.02%, BSA 0.01%. Orthovanadate 0.1 mM, and 1% DMSO.
Detection buffer: HEPES 10 mM (pH7.0), BSA 0.02%, KF 0.16 M, and EDTA 4 mM.
Enzymes for reaction: recombinant full-length human PI3K p110α subunit (molecular weight=128.4 kDa) with a His-tag at the N-terminus and unlabeled p85α subunit (molecular weight=83.6 kDa), which were expressed in insect cells.
Substrate for reaction: […] PIP2 substrate (PI(4,5)P2).
Reaction conditions: 10 μM PI(4,5)P2 and 10 μM ATP.
1. preparing the substrate in the freshly prepared reaction buffer;
(§2) 2. adding the kinase into the substrate reaction solution, and mixing gently;
3. transferring the compound dissolved in 100% DMSO into the kinase reaction solution by using Acoustic technique (Echo550; nanoliter rang), and incubating at room temperature for 10 minutes;
4. adding an appropriate concentration of ATP into the reaction system,
5. incubating at 30° C. for half an hour;
6. terminating the reaction by adding a stop solution;
7. adding the detection buffer and incubating overnight; and
8. detecting by using homogeneous time-resolved fluorescence (HTRF) method (excitation wavelength of 320 nm, measuring the ratio of the emission wavelength readings at 615 nm and 665 nm).

[3] = molecular target: T2, mTOR (Homo sapiens, UniProt P42345); assay: In vitro enzyme activity assay, mTOR kinase (32P-ATP, P81 filter-binding); assay type: biochemical; settings: 4EBPI substrate, 10 μM ATP; read-out: mTOR enzyme activity_IC50
T2 construct: recombinant human mTOR fragment (amino acid 1360-2549, molecular weight=163.9 kDa); GST-tag (N); host or cells: insect cells
Description: mTOR kinase activities of the compounds in all the examples of the present invention were tested via the following method.
Reaction buffer: 20 mM Hepes (pH 7.5), 10 mM MgCl2, 2 mM MnCl2, 1 mM EGTA, 0.02% Brij35, 0.02 mg/mL BSA, 0.1 mM Na3VO4, 2 mM DTT, and 2% DMSO.
Enzyme for reaction: recombinant human mTOR fragment (amino acid 1360-2549, molecular weight=163.9 kDa) with a GST-tag at the N-terminus, which was expressed in insect cells.
Substrate for reaction: recombinant full-length human 4EBPI (molecular weight=13.6 kDa) with a His-tag at the N-terminus, which was expressed in bacteria.
Reaction conditions: […] 4EBPI and 10 μM ATP.
1. adding the reaction substrate and other reaction factors into the freshly prepared reaction buffer;
as §2
3. transferring the compound dissolved in 100% DMSO into the kinase reaction solution by using Acoustic technique (Echo550; nanoliter rang), and incubating at room temperature for 20 minutes;
4. adding an appropriate concentration of ^32P-ATP into the reaction system;
5. incubating at room temperature for 2 hours;
6. detecting the kinase activity by using P81 filter-binding method.

[4] = molecular target: T1, PI3K (p110α); assay: In vitro enzyme activity assay, PI3K (p110α) kinase, Method II (ADP-Glo assay); assay type: biochemical; parameters: purchased Millipore 14-602-K; settings: read-out: PI3K (p110α) enzyme activity_IC50
Description: as §1
Dilution of the Compound:
The compound to be tested was diluted with a 3-fold concentration gradient, and 10 concentrations (from 10000 nM to 0.5 nM) were obtained in total.
50 nL of the compound was transferred to a reaction plate (PerkinElmer #6007299) and 3 μL of enzyme/substrate mixture (0.33 nM PI3Kalpha, Millipore #14-602-K/166.5 μM PIP2) was added. After 20 min incubation, 2 uL of ATP solution (100 uM) was added to initiate the reaction. After reacting for 2 hours at room temperature, 5 μL of ADP-Glo reagent was added to terminate the kinase reaction. Then the mixture was incubated at room temperature for 60 min to completely digest the remaining unreacted ATP, 10 uL of kinase detection reagent was added, and after 40 min incubation at room temperature, […] was readed on an Envision. PIP2, ATP, ADP-Glo and the kinase detection reagent were all from ADP-Glo kinase assay kit (Promega #V1792).
IC50 was calculated using standard 4-parameter fit method (Model205, XL-fit, iDBS).

T1 sequence (P42336 whole entry): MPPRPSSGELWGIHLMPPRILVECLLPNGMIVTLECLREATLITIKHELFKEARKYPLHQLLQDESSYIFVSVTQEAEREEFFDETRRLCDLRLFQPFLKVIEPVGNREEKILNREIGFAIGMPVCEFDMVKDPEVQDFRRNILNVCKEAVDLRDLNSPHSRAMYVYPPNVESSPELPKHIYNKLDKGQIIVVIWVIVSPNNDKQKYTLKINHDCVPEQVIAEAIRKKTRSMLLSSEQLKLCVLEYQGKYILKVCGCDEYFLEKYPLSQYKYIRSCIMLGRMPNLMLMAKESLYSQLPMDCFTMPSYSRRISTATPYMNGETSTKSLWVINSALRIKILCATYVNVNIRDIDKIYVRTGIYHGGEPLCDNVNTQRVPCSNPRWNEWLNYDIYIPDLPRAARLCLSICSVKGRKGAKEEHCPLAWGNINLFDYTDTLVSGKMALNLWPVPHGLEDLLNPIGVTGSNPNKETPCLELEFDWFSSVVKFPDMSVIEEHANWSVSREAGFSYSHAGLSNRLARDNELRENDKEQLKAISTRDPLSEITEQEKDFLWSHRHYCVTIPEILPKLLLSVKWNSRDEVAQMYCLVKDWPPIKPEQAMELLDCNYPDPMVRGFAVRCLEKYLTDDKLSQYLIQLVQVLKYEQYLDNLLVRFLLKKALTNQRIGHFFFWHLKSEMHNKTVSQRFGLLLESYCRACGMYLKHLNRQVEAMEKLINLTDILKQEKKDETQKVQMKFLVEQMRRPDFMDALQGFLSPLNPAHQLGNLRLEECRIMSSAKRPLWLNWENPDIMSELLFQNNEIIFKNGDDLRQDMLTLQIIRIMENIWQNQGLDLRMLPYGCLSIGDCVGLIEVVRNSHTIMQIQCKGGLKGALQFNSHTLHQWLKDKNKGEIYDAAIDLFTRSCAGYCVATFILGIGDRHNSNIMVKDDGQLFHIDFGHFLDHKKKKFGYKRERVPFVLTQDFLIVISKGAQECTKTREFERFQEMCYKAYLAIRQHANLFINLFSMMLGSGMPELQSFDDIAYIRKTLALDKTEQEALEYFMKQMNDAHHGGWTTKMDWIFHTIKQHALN
T1 sequence (P27986 whole entry partner): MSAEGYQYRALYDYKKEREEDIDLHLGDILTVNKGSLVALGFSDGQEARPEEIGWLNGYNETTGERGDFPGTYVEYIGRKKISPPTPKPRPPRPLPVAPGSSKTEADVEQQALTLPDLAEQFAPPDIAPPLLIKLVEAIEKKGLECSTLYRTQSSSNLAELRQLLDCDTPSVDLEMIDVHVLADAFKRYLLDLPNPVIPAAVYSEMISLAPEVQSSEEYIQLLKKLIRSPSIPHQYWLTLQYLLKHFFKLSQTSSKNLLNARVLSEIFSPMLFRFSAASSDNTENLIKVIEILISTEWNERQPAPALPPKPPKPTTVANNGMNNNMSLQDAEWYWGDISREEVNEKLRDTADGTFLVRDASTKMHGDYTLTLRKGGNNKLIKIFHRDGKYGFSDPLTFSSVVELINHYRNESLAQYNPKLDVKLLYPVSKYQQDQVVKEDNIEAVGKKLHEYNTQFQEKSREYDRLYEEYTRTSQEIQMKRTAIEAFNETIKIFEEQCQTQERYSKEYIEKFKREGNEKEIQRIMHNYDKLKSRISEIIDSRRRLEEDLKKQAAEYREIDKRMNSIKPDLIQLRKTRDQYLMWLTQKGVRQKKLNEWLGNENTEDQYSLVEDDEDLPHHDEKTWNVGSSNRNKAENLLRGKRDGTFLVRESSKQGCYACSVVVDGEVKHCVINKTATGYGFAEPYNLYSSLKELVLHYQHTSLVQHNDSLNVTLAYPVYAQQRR
T2 sequence (P42345 1360-2549): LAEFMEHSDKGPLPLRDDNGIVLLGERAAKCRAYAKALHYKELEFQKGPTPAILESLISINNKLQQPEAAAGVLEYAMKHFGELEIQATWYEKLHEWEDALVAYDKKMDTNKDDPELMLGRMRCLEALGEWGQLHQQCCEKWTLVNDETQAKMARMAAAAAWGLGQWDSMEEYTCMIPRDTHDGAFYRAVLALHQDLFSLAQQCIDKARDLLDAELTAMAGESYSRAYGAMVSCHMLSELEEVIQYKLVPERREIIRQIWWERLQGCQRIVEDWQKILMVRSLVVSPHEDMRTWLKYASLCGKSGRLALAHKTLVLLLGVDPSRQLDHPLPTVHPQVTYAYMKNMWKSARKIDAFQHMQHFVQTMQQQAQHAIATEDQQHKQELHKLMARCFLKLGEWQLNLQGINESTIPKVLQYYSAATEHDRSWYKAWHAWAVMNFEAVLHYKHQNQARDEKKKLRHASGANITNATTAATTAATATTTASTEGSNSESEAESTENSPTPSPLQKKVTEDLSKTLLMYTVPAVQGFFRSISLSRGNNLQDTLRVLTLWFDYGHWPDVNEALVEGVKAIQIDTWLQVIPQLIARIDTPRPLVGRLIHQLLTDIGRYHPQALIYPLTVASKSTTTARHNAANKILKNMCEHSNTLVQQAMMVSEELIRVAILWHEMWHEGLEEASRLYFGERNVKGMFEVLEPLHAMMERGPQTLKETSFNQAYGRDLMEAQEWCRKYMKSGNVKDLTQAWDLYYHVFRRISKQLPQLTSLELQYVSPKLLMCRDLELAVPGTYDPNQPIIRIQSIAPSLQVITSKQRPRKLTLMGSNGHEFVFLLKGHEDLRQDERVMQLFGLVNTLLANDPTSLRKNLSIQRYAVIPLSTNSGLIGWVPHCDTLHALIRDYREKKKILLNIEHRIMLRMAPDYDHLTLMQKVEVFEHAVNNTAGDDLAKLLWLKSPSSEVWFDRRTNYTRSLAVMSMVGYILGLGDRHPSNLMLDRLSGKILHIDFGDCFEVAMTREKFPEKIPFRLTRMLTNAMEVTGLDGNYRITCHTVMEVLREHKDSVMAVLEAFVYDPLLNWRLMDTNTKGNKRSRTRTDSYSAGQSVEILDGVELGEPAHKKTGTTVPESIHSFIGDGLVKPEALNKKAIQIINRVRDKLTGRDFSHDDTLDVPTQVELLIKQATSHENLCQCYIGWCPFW

SMILES	IC50 [1] [nM]	IC50 [2] [nM]	IC50 [3] [nM]	IC50 [4] [nM]
COc1ncc(-c2ccc3ncc(OCCN4CCC(F)(F)CC4)c(=O)n3c2)cc1NS(=O)(=O)c1sc(C)nc1C [Compound 1, N-(5-(3-(2-(4,4-difluoro-1-piperidinyl)ethoxy)-4-oxo-pyrido[1,2-a]pyrimidin-7-yl]-2-methoxypyridin-3-yl]-2,4-dimethylthiazole-5-sulfonamide]	≤ 50	≤ 1	50 to 200	
COc1ncc(-c2ccc3ncc(OCCN4CCC(F)CC4)c(=O)n3c2)cc1NS(=O)(=O)c1sc(C)nc1C [Compound 2]	≤ 50	≤ 1	50 to 200	
COc1ncc(-c2ccc3ncc(OCCN4CCNCC4)c(=O)n3c2)cc1NS(=O)(=O)c1sc(C)nc1C [Compound 3]	> 250	≤ 1	> 200	
CNCCOc1cnc2ccc(-c3cnc(OC)c(NS(=O)(=O)c4sc(C)nc4C)c3)cn2c1=O [Compound 6]		≤ 1	> 200	
COc1ncc(-c2ccc3ncc(OCCN4CCOCC4)c(=O)n3c2)cc1NS(=O)(=O)c1ccc(C)cc1C [Compound 7, 2,4-Dimethyl-N-(2-methoxy-5-(3-(2-morpholinoethoxy)-4-oxo-4H-pyrido[1,2-a]pyrimidin-4-one-7-yl)pyridin-3-yl)benzenesulfonamide]	≤ 50	≤ 1	> 200	
COc1ncc(-c2ccc3ncc(OCCN4CCOCC4)c(=O)n3c2)cc1NS(=O)(=O)c1ccc(F)cc1C [Compound 8]	50 to 100	≤ 1	> 200	
COc1ncc(-c2ccc3ncc(OCCN4CCOCC4)c(=O)n3c2)cc1NS(=O)(=O)c1ccccc1F [Compound 9]	100 to 250	≤ 1	> 200	
COc1ncc(-c2ccc3ncc(OCCN4CCOCC4)c(=O)n3c2)cc1NS(=O)(=O)c1ccccc1Cl [Compound 10]	50 to 100	≤ 1	> 200	
COc1ncc(-c2ccc3ncc(OCCN4CCOCC4)c(=O)n3c2)cc1NS(=O)(=O)c1ccc(F)cc1Cl [Compound 11]	≤ 50	≤ 1	> 200	
Cc1nc(C)c(S(=O)(=O)Nc2cc(-c3ccc4ncc(OCCN5CCOCC5)c(=O)n4c3)cnc2N)s1 [Compound 12]	> 250	≤ 1	50 to 200	
COc1ncc(-c2ccc3ncc(OCCN4CCOCC4)c(=O)n3c2)cc1NS(=O)(=O)c1ccc(F)cc1F [Compound 13]		≤ 1	> 200	
COc1ncc(-c2ccc3ncc(OCCN4CCOCC4)c(=O)n3c2)cc1NS(=O)(=O)c1ccc(Cl)s1 [Compound 14]	≤ 50	≤ 1	> 200	
COc1ncc(-c2ccc3ncc(OCCN4CCOCC4)c(=O)n3c2)cc1NS(=O)(=O)c1sc(C)nc1C [Compound 15]	≤ 50	≤ 1	50 to 200	
COc1ncc(-c2ccc3ncc(OCCN4CCOCC4)c(=O)n3c2)cc1NS(=O)(=O)c1sc(N)nc1C [Compound 16]	100 to 250	≤ 1	50 to 200	
COc1ncc(-c2ccc3ncc(OCCN(C)C)c(=O)n3c2)cc1NS(=O)(=O)c1ccc(F)cc1Cl [Compound 25]	≤ 50		> 200	≤ 1
COc1ncc(-c2ccc3ncc(OCCN4CCCC4)c(=O)n3c2)cc1NS(=O)(=O)c1ccc(F)cc1Cl [Compound 27]	50 to 100		50 to 200	≤ 1
COc1ncc(-c2ccc3ncc(OCC4(N)CC4)c(=O)n3c2)cc1NS(=O)(=O)c1ccc(F)cc1Cl [Compound 32]	50 to 100		50 to 200	≤ 1
COc1ncc(-c2ccc3ncc(OC4CCNCC4)c(=O)n3c2)cc1NS(=O)(=O)c1ccc(F)cc1F [Compound 41, 2,4-Difluoro-N-(2-methoxy-5-(4-oxo-3-(piperidin-4-yloxy)-4H-pyrido[1,2-a]pyrimidin-7-yl)pyridin-3-yl)benzenesulfonamide]		1 to 50	> 200	
COc1ncc(-c2ccc3ncc(OC4CCNC4)c(=O)n3c2)cc1NS(=O)(=O)c1ccc(F)cc1F (stereo not drawn) [Compound 44]		≤ 1	> 200	
COc1ncc(-c2ccc3ncc(OCCN4CCC(O)CC4)c(=O)n3c2)cc1NS(=O)(=O)c1ccc(F)cc1Cl [Compound 79]	100 to 250			≤ 1
COc1ncc(-c2ccc3ncc(OCCNCCO)c(=O)n3c2)cc1NS(=O)(=O)c1ccc(F)cc1Cl [Compound 81]	> 250			≤ 1
COc1ncc(-c2ccc3ncc(OCCN4CCC(C)(O)CC4)c(=O)n3c2)cc1NS(=O)(=O)c1ccc(F)cc1Cl [Compound 82]	100 to 250			≤ 1
COc1ncc(-c2ccc3ncc(OC4CCN(C)C4)c(=O)n3c2)cc1NS(=O)(=O)c1ccc(F)cc1Cl (stereo not drawn) [Compound 85]	50 to 100			1 to 50
COc1ncc(-c2ccc3ncc(OCCN4CCOCC4C)c(=O)n3c2)cc1NS(=O)(=O)c1ccc(F)cc1Cl (stereo not drawn) [Compound 88]	50 to 100			≤ 1
COc1ncc(-c2ccc3ncc(OCCN4CCOC(C)C4)c(=O)n3c2)cc1NS(=O)(=O)c1ccc(F)cc1Cl (stereo not drawn) [Compound 89]	≤ 50			≤ 1
COc1ncc(-c2ccc3ncc(OCCN4CCN(C(C)=O)CC4)c(=O)n3c2)cc1NS(=O)(=O)c1ccc(F)cc1Cl [Compound 90]	50 to 100			≤ 1
COCCN(CCOc1cnc2ccc(-c3cnc(OC)c(NS(=O)(=O)c4ccc(F)cc4Cl)c3)cn2c1=O)CC(F)(F)F [Compound 95]	≤ 50			1 to 50
